Measured values: ChEMBL document CHEMBL3751747, “Synthesis and positive inotropic activity evaluation of liguzinediol metabolites” (Bioorg Med Chem Lett, 2016)
Several values for one entry are separate records, joined by “and”; a condition that tells them apart may be missing. Equal entries are not always repeated.

Legend:
[1] = tested on: Heart; experiment: Positive inotropic activity in Sprague-Dawley rat heart assessed as peak decrease rate of left ventricular pressure at 10 umol/L (reference value: - 756.58 +/- 265.23 to - 831 +/- 313.09 mmHg/s); type: functional, Heart left ventricle
[2] = tested on: Heart; experiment: Positive inotropic activity in Sprague-Dawley rat heart assessed as heart rate at 100 umol/L (reference value: 218.67 +/- 20.62 to 260 +/- 21.81 bpm); type: functional
[3] = tested on: Heart; experiment: Positive inotropic activity in Sprague-Dawley rat heart assessed as left ventricular diastolic pressure at 100 umol/L (reference value: -0.04 +/- 0.33 to -0.67 +/- 0.69 mmHg); type: functional, Heart left ventricle
[4] = tested on: Heart; experiment: Positive inotropic activity in Sprague-Dawley rat heart assessed as peak rise rate of left ventricular pressure at 1 umol/L (reference value: 1117.66 +/- 665.76 to 1242.03 +/- 495.72 mmHg/s); type: functional, Heart left ventricle
[5] = tested on: Heart; experiment: Positive inotropic activity in Sprague-Dawley rat heart assessed as peak rise rate of left ventricular pressure at 10 umol/L (reference value: 1117.66 +/- 665.76 to 1242.03 +/- 495.72 mmHg/s); type: functional, Heart left ventricle
[6] = tested on: Heart; experiment: Positive inotropic activity in Sprague-Dawley rat heart assessed as peak decrease rate of left ventricular pressure at 100 umol/L (reference value: - 756.58 +/- 265.23 to - 831 +/- 313.09 mmHg/s); type: functional, Heart left ventricle
[7] = tested on: Heart; experiment: Positive inotropic activity in Sprague-Dawley rat heart assessed as left ventricular systolic pressure at 100 umol/L (reference value: 20.7 +/- 7.61 to 25.86 +/- 9.41 mmHg); type: functional, Heart left ventricle
[8] = tested on: Heart; experiment: Positive inotropic activity in Sprague-Dawley rat heart assessed as peak decrease rate of left ventricular pressure at 1 umol/L (reference value: - 756.58 +/- 265.23 to - 831 +/- 313.09 mmHg/s); type: functional, Heart left ventricle
[9] = Retention time of the compound by HPLC- MS/MS analysis; type: physicochemical
[10] = tested on: Heart; experiment: Positive inotropic activity in Sprague-Dawley rat heart assessed as heart rate at 10 umol/L (reference value: 218.67 +/- 20.62 to 260 +/- 21.81 bpm); type: functional
[11] = tested on: Heart; experiment: Positive inotropic activity in Sprague-Dawley rat heart assessed as heart rate at 1 umol/L (reference value: 218.67 +/- 20.62 to 260 +/- 21.81 bpm); type: functional
[12] = tested on: Heart; experiment: Positive inotropic activity in Sprague-Dawley rat heart assessed as left ventricular diastolic pressure at 1 umol/L (reference value: -0.04 +/- 0.33 to -0.67 +/- 0.69 mmHg); type: functional, Heart left ventricle
[13] = tested on: Heart; experiment: Positive inotropic activity in Sprague-Dawley rat heart assessed as left ventricular diastolic pressure at 10 umol/L (reference value: -0.04 +/- 0.33 to -0.67 +/- 0.69 mmHg); type: functional, Heart left ventricle
[14] = tested on: Heart; experiment: Positive inotropic activity in Sprague-Dawley rat heart assessed as left ventricular systolic pressure at 1 umol/L (reference value: 20.7 +/- 7.61 to 25.86 +/- 9.41 mmHg); type: functional, Heart left ventricle
[15] = tested on: Heart; experiment: Positive inotropic activity in Sprague-Dawley rat heart assessed as left ventricular systolic pressure at 10 umol/L (reference value: 20.7 +/- 7.61 to 25.86 +/- 9.41 mmHg); type: functional, Heart left ventricle
[16] = tested on: Heart; experiment: Toxicity in Sprague-Dawley rat heart assessed as arrhythmias; details: in vivo
[17] = tested on: Heart; experiment: Positive inotropic activity in Sprague-Dawley rat heart assessed as peak rise of left ventricular pressure at 100 umol/L (reference value: 1117.66 +/- 665.76 to 1242.03 +/- 495.72 mmHg/s); type: functional, Heart left ventricle
[18] = tested on: Heart; experiment: Positive inotropic activity in Sprague-Dawley rat heart assessed as increase in peak rise of left ventricular pressure at 100 uM relative to control; type: functional, Heart left ventricle
[19] = tested on: Heart; experiment: Positive inotropic activity in Sprague-Dawley rat heart assessed as left ventricular systolic pressure; type: functional, tissue-based; details: Heart left ventricle
[20] = tested on: Heart; experiment: Positive inotropic activity in Sprague-Dawley rat heart assessed as increase in peak rise of left ventricular pressure at 10 uM relative to control; type: functional, Heart left ventricle
[21] = tested on: Heart; experiment: Positive inotropic activity in Sprague-Dawley rat heart assessed as increase in left ventricular systolic pressure at 1 uM relative to control; type: functional, Heart left ventricle
[22] = tested on: Heart; experiment: Positive inotropic activity in Sprague-Dawley rat heart assessed as +dP/dtmax; type: functional, tissue-based
[23] = tested on: Heart; experiment: Positive inotropic activity in Sprague-Dawley rat heart assessed as increase in peak decrease rate of left ventricular pressure at 1 uM relative to control; type: functional, Heart left ventricle; parameters: scale not given: the % may be the effect or the level left
[24] = tested on: Heart; experiment: Positive inotropic activity in Sprague-Dawley rat heart assessed as increase in peak rise of left ventricular pressure at 1 uM relative to control; type: functional, Heart left ventricle
[25] = tested on: Heart; experiment: Positive inotropic activity in Sprague-Dawley rat heart assessed as increase in peak decrease rate of left ventricular pressure at 10 uM relative to control; type: functional, Heart left ventricle; parameters: scale not given: the % may be the effect or the level left
[26] = tested on: Heart; experiment: Positive inotropic activity in Sprague-Dawley rat heart assessed as -dP/dtmax; type: functional, tissue-based
[27] = tested on: Heart; experiment: Positive inotropic activity in Sprague-Dawley rat heart assessed as increase in peak decrease rate of left ventricular pressure at 100 uM relative to control; type: functional, Heart left ventricle; parameters: scale not given: the % may be the effect or the level left
[28] = tested on: Heart; experiment: Positive inotropic activity in Sprague-Dawley rat heart assessed as increase in left ventricular systolic pressure at 100 uM relative to control; type: functional, Heart left ventricle
[29] = tested on: Heart; experiment: Positive inotropic activity in Sprague-Dawley rat heart assessed as increase in left ventricular systolic pressure at 10 uM relative to control; type: functional, Heart left ventricle

Row | Structure (SMILES) | Retention_time [9] | Activity [1] [mmHg/s] | Activity [2] [bpm] | Activity [3] [mmHg] | Activity [4] [mmHg/s] | Activity [5] [mmHg/s] | Activity [6] [mmHg/s] | Activity [7] [mmHg] | Activity [8] [mmHg/s] | Activity [10] [bpm] | Activity [11] [bpm] | Activity [12] [mmHg] | Activity [13] [mmHg] | Activity [14] [mmHg] | Activity [15] [mmHg] | Activity [16] | Activity [17] [mmHg/s] | also measured
1 | Cc1nc(C(=O)O)c(C)nc1CO | 3.675 min and 3.637 min | -892.92 | 246.61 | -0.38 | 1267.96 | 1286.48 | -904.56 | 28.51 | -865.84 | 252.83 | 259.5 | -0.24 | -0.19 | 26.98 | 27.85 | Non-toxic | 1299.82 | 
2 | Cc1nc(CO)c(C)nc1CO |  |  | 238.5 | -0.34 |  |  |  |  |  | 245.44 | 239.06 | 0 | -0.19 |  |  | Non-toxic |  | Activity [18]: 23.9%; Activity [19]: Dose-dependent effect; Activity [20]: 14.75%; Activity [21]: 17.65%; Activity [22]: Dose-dependent effect; Activity [23]: 10.38%; Activity [24]: 4.23%; Activity [25]: 24.95%; Activity [26]: Dose-dependent effect; Activity [27]: 47.83%; Activity [28]: 59.4%; Activity [29]: 32.96%
3 | Cc1nc(CO[C@@H]2O[C@H](C(=O)O)[C@@H](O)[C@H](O)[C@H]2O)c(C)nc1CO (stereo in doubt) | 6.71 min |  |  |  |  |  |  |  |  |  |  |  |  |  |  |  |  | 
4 | Cc1nc(CO[C@@H]2O[C@H](C(=O)O)[C@@H](O)[C@H](O)[C@H]2O)c(C)nc1CO (stereo in doubt; 2) | 6.687 min | -804.27 | 220.67 | -0.97 | 1127.74 | 1123.44 | -733.61 | 23.76 | -790.99 | 221.22 | 234.28 | -0.73 | -0.76 | 22.35 | 22.66 | Non-toxic | 1127.22 | 

Further lines, with some results ahead:

Row | Retention_time [9] | Structure (SMILES) | Activity [1] [mmHg/s] | Activity [2] [bpm] | Activity [3] [mmHg] | Activity [4] [mmHg/s] | Activity [5] [mmHg/s] | Activity [6] [mmHg/s] | Activity [7] [mmHg] | Activity [8] [mmHg/s] | Activity [10] [bpm] | Activity [11] [bpm] | Activity [12] [mmHg] | Activity [13] [mmHg] | Activity [14] [mmHg] | Activity [15] [mmHg] | Activity [16] | Activity [17] [mmHg/s] | also measured
5 | 5.709 min | CC(=O)NC(CSCc1nc(C)c(CO)nc1C)C(=O)O (stereo in doubt) |  |  |  |  |  |  |  |  |  |  |  |  |  |  |  |  | 
6 | 2.988 min | Cc1nc(CSCC(N)C(=O)O)c(C)nc1CO (stereo in doubt) |  |  |  |  |  |  |  |  |  |  |  |  |  |  |  |  | 
7 | 3 min | Cc1nc(CSCC(N)C(=O)O)c(C)nc1CO (stereo in doubt; 3) | -784.9 | 230.67 | -0.24 | 1303.47 | 1296.62 | -822.39 | 27.42 | -782.91 | 227.72 | 231.39 | -0.11 | -0.09 | 25.02 | 25.68 | Non-toxic | 1333.56 | 
8 | 5.705 min | CC(=O)NC(CSCc1nc(C)c(CO)nc1C)C(=O)O (stereo in doubt; 4) | -823.04 | 232.39 | -0.59 | 1186.33 | 1191.76 | -872.56 | 22.4 | -799.02 | 231.5 | 228.5 | -0.15 | -0.7 | 21.22 | 21.69 | Non-toxic | 1199.81 | 
